Assay results as given in patent publication US20220073536A1 (Rigel Pharmaceuticals, Inc., priority 2003, published 2022).
Structures can show the parent of a compound that is named as a salt. Where two headings read alike, the source gives them in different places.

System: cultured human mast cells (CHMC)
Experiment: CHMC low cell density IgE activation: tryptase assay
Type: cell-based
Settings: low cell density CHMC, IgE activation, tryptase release
Summary of the method: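 Fluorogenic readout of tryptase released into the supernatant (30 min substrate incubation, room temperature) measures degranulation. Cells were plated at low density (1000–1500/well, varied by donor) and triggered with anti-IgE for 30 min at 37 °C.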

[1] = Homo sapiens, Mast cell, 8 pt, read-out: LD Tryptase, CHMC, IgE, 8 pt
[2] = 8 pt, read-out: LD Tryptase, CHMC, IgE, 8 pt
[3] = 3 pt, read-out: LD Tryptase, CHMC, IgE, 3 pt

Compound	IC50 [1] [µM]	IC50 [2] [µM]	IC50 [3] [µM]
Cn1nc(N)c2cc(Nc3ncc(F)c(Nc4ccc5c(c4)NC(=O)C(C)(C)O5)n3)ccc21 [Compound 806, N2-(3-Amino-1-methylindazol-5-yl)-N4-(2,2-dimethyl-3-oxo-4H-benz[1,4]oxazin-6-yl)-5-fluoro-2,4-pyrimidinediamine]	< 10	–	–
Cc1nn(C)c2cc(Nc3ncc(F)c(Nc4ccc5c(n4)NC(=O)C(C)(C)O5)n3)ccc12 [Compound 812, N2-(1,3-Dimethylindazol-6-yl)-N4-(2,2-dimethyl-3-oxo-4H-5-pyrid[1,4]oxazin-6-yl)-5-fluoro-2,4-pyrimidinediamine]	–	< 10	–
Cc1n[nH]c2cc(Nc3ncc(F)c(Nc4ccc5c(n4)NC(=O)C(C)(C)O5)n3)ccc12 [Compound 813, N4-(2,2-Dimethyl-3-oxo-4H-5-pyrid[1,4]oxazin-6-yl)-5-fluoro-N2-(3-methyl-1H-indazol-6-yl)-2,4-pyrimidinediamine]	–	< 10	–
COCCCn1ncc2cc(Nc3ncc(F)c(Nc4ccc5c(n4)NC(=O)C(C)(C)O5)n3)ccc21 [Compound 814, N4-(2,2-Dimethyl-3-oxo-4H-5-pyrid[1,4]oxazin-6-yl)-5-fluoro-N2-[1-(3-methoxypropyl)indazol-5-yl]-2,4-pyrimidinediamine]	–	< 10	–
COc1ccc(Nc2nc(Nc3ccc4c(cnn4CCCN4C(=O)c5ccccc5C4=O)c3)ncc2F)cc1Cl [Compound 815, N4-(3-Chloro-4-methoxyphenyl)-5-fluoro-N2-[1-[3-(N-phthalimidopropyl)]indazol-5-yl]-2,4-pyrimidinediamine]	–	< 10	–
CC1(C)Oc2ccc(Nc3nc(Nc4ccc5c(cnn5CCCN5C(=O)c6ccccc6C5=O)c4)ncc3F)cc2NC1=O [Compound 817, N4-(2,2-Dimethyl-3-oxo-4H-benz[1,4]oxazin-6-yl)-5-fluoro-N2-[1-[3-(N-phthalimidopropyl)]indazol-5-yl]-2,4-pyrimidinediamine]	–	< 10	–
C[C@@H]1Oc2ccc(Nc3nc(Nc4ccc5c(cnn5CCCN5C(=O)c6ccccc6C5=O)c4)ncc3F)cc2NC1=O [Compound 818, (S)-5-Fluoro-N4-(2-methyl-3-oxo-2H,4H-benz[1,4]oxazin-6-yl)-N2-[1-[3-(N-phthalimidopropyl)]indazol-5-yl]-2,4-pyrimidinediamine]	–	< 10	–
NCCCn1ncc2cc(Nc3ncc(F)c(Nc4ccc(Cl)c(Cl)c4)n3)ccc21 [Compound 824, N2-[1-(3-Aminopropyl)indazol-5-yl]-N4-(3,4-dichlorophenyl)-5-fluoro-2,4-pyrimidinediamine]	< 10	–	–
CC1(C)Oc2ccc(Nc3nc(Nc4ccc5c(cnn5CCCN)c4)ncc3F)cc2NC1=O [Compound 825, N2-[1-(3-Aminopropyl)indazol-5-yl]-N4-(2,2-dimethyl-3-oxo-4H-benz[1,4]oxazin-6-yl)-5-fluoro-2,4-pyrimidinediamine]	< 10	–	–
C[C@@H]1Oc2ccc(Nc3nc(Nc4ccc5c(cnn5CCCN)c4)ncc3F)cc2NC1=O [Compound 826, (S)-N2-[1-(3-Aminopropyl)indazol-5-yl]-5-fluoro-N4-(2-methyl-3-oxo-2H,4H-benz[1,4]oxazin-6-yl)-2,4-pyrimidinediamine]	< 10	–	–
COc1ccc(Nc2nc(Nc3ccc4c(cnn4CCCO)c3)ncc2F)cc1Cl [Compound 828, N4-(3-Chloro-4-methoxyphenyl)-5-fluoro-N2-[1-(3-hydroxypropyl)indazol-5-yl]-2,4-pyrimidinediamine Bis p-Toluenesulfonic Acid Salt]	< 10	–	–
Cn1nc(N)c2cc(Nc3ncc(F)c(Nc4ccc5c(n4)NC(=O)C(C)(C)O5)n3)ccc21 [Compound 837, N2-(3-Amino-1-methylindazol-5-yl)-N4-(2,2-dimethyl-3-oxo-4H-5-pyrid[1,4]oxazin-6-yl)-5-fluoro-2,4-pyrimidinediamine]	–	< 10	< 10
CC1(C)Oc2ccc(Nc3nc(Nc4ccc5c(cnn5CCCO)c4)ncc3F)nc2NC1=O [Compound 838, N4-(2,2-Dimethyl-3-oxo-4H-5-pyrid[1,4]oxazin-6-yl)-5-fluoro-N2-[1-(3-hydroxypropyl)indazol-5-yl]-2,4-pyrimidinediamine]	–	< 10	< 10
COc1ccc(Nc2nc(Nc3ccc4c(cnn4CCCNS(=O)(=O)C(F)(F)F)c3)ncc2F)cc1Cl [Compound 840, N4-(3-Chloro-4-methoxyphenyl)-5-fluoro-N2-[1-[3-(N-trifluoromethylsulfonylamino)propyl]indazol-5-yl]-2,4-pyrimidinediamine]	< 10	–	–
O=S(=O)(NCCCn1ncc2cc(Nc3ncc(F)c(Nc4ccc(Cl)c(Cl)c4)n3)ccc21)C(F)(F)F [Compound 841, N4-(3,4-Dichlorophenyl)-5-fluoro-N2-[1-[3-(N-trifluoromethylsulfonylamino)propyl]indazol-5-yl]-2,4-pyrimidinediamine]	< 10	–	–
C[C@@H]1Oc2ccc(Nc3nc(Nc4ccc5c(cnn5CCCNS(=O)(=O)C(F)(F)F)c4)ncc3F)cc2NC1=O [Compound 843, (S)-5-Fluoro-N4-(2-methyl-3-oxo-2H,4H-benz[1,4]oxazin-6-yl)-N2-[1-[3-(N-trifluoromethylsulfonylamino)propyl]indazol-5-yl]-2,4-pyrimidinediamine]	< 10	–	–
COc1ccc(Nc2nc(Nc3ccc4c(cnn4CCCNC(=O)C(C)(C)C)c3)ncc2F)cc1Cl [Compound 848, N4-(3-Chloro-4-methoxyphenyl)-5-fluoro-N2-[1-(3-pivalamidopropyl)indazol-5-yl]-2,4-pyrimidinediamine]	< 10	–	–
CC(C)(C)C(=O)NCCCn1ncc2cc(Nc3ncc(F)c(Nc4ccc(Cl)c(Cl)c4)n3)ccc21 [Compound 849, N4-(3,4-Dichlorophenyl)-5-fluoro-N2-[1-(3-pivalamidopropyl)indazol-5-yl]-2,4-pyrimidinediamine]	< 10	–	–
CC(C)(C)C(=O)NCCCn1ncc2cc(Nc3ncc(F)c(Nc4ccc5c(c4)NC(=O)C(C)(C)O5)n3)ccc21 [Compound 850, N4-(2,2-Dimethyl-3-oxo-4H-benz[1,4]oxazin-6-yl)-5-fluoro-N2-[1-(3-pivalamidopropyl)indazol-5-yl]-2,4-pyrimidinediamine]	< 10	–	–

The next lines start with the values.

IC50 [1] [µM]	IC50 [2] [µM]	IC50 [3] [µM]	Compound
–	> 10	–	O=C1c2ccccc2C(=O)N1CCCn1ncc2cc(Nc3ncc(F)c(Nc4ccc(Cl)c(Cl)c4)n3)ccc21 [Compound 816, N4-(3,4-Dichlorophenyl)-5-fluoro-N2-[1-[3-(N-phthalimidopropyl)]indazol-5-yl]-2,4-pyrimidinediamine]
< 10	–	–	CC(=O)NCCCn1ncc2cc(Nc3ncc(F)c(Nc4ccc(Cl)c(Cl)c4)n3)ccc21 [Compound 820, N2-[1-[3-(N-Acetylamino)propyl]indazol-5-yl]-N4-(3,4-dichlorophenyl)-5-fluoro-2,4-pyrimidinediamine]
< 10	–	–	CC(=O)NCCCn1ncc2cc(Nc3ncc(F)c(Nc4ccc5c(c4)NC(=O)C(C)(C)O5)n3)ccc21 [Compound 821, N2-[1-[3-(N-Acetylamino)propyl]indazol-5-yl]-N4-(2,2-dimethyl-3-oxo-4H-benz[1,4]oxazin-6-yl)-5-fluoro-2,4-pyrimidinediamine]
< 10	–	–	CC(=O)NCCCn1ncc2cc(Nc3ncc(F)c(Nc4ccc5c(n4)NC(=O)C(C)(C)O5)n3)ccc21 [Compound 822, N2-[1-[3-(N-Acetylamino)propyl]indazol-5-yl]-N4-(2,2-dimethyl-3-oxo-4H-5-pyrid[1,4]oxazin-6-yl)-5-fluoro-2,4-pyrimidinediamine]
< 10	–	–	COc1ccc(Nc2nc(Nc3ccc4c(cnn4CCCN)c3)ncc2F)cc1Cl [Compound 823, N2-[1-(3-Aminopropyl)indazol-5-yl]-N4-(3-chloro-4-methoxyphenyl)-5-fluoro-2,4-pyrimidinediamine]
–	< 10	< 10	COCCCn1ncc2ccc(Nc3ncc(F)c(Nc4ccc5c(n4)NC(=O)C(C)(C)O5)n3)cc21 [Compound 839, N4-(2,2-Dimethyl-3-oxo-4H-5-pyrid[1,4]oxazin-6-yl)-5-fluoro-N2-[1-(3-methoxypropyl)indazol-6-yl]-2,4-pyrimidinediamine]
< 10	–	–	CC1(C)Oc2ccc(Nc3nc(Nc4ccc5c(cnn5CCCNS(=O)(=O)C(F)(F)F)c4)ncc3F)cc2NC1=O [Compound 842, N4-(2,2-Dimethyl-3-oxo-4H-benz[1,4]oxazin-6-yl)-5-fluoro-N2-[1-[3-(N-trifluoromethylsulfonylamino)propyl]indazol-5-yl]-2,4-pyrimidinediamine]
–	> 10	–	CC1(C)Oc2ccc(Nc3nc(Nc4ccc5c(cnn5CCCNS(=O)(=O)C(F)(F)F)c4)ncc3F)nc2NC1=O [Compound 844, N4-(2,2-Dimethyl-3-oxo-4H-5-pyrid[1,4]oxazin-6-yl)-5-fluoro-N2-[1-[3-(N-trifluoromethylsulfonylamino)propyl]indazol-5-yl]-2,4-pyrimidinediamine]
–	< 10	–	CCOP(=O)(NCCCn1ncc2cc(Nc3ncc(F)c(Nc4ccc(OC)c(Cl)c4)n3)ccc21)OCC [Compound 847, N4-(3-Chloro-4-methoxyphenyl)-N2-[1-(3-(diethylphosphonamido)propyl]indazol-5-yl]-5-fluoro-2,4-pyrimidinediamine]
< 10	–	–	C[C@@H]1Oc2ccc(Nc3nc(Nc4ccc5c(cnn5CCCNC(=O)C(C)(C)C)c4)ncc3F)cc2NC1=O [Compound 851, 5-Fluoro-(S)-N4-(2-methyl-3-oxo-4H-benz[1,4]oxazin-6-yl)-N2-[1-(3-pivalamidopropyl)indazol-5-yl]-2,4-pyrimidinediamine]
–	< 10	–	CC(C)(C)C(=O)NCCCn1ncc2cc(Nc3ncc(F)c(Nc4ccc5c(n4)NC(=O)C(C)(C)O5)n3)ccc21 [Compound 852, N4-(2,2-Dimethyl-3-oxo-4H-5-pyrido[1,4]oxazin-6-yl)-5-fluoro-N2-[1-(3-pivalamidopropyl)indazol-5-yl]-2,4-pyrimidinediamine]
